Tests used:
MYC:TRRAP interaction = MYC:TRRAP interaction (Homo sapiens, UniProt P01106+Q9Y4A5); experiment: MYC:TRRAP in-cell luminescence complementation assay (NanoBiT; SmB-MYC 1-190 and TRRAP 2033-2283-LgB in HeLa cells); assay type: cell-based
In short: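 HeLa cells transfected with SmB-MYC 1-190, TRRAP 2033-2283-LgB and EGFP reporter (6.7:60:33.3 ng plasmid per well); two days later treated 2 h with compounds at 25 μM. NanoBiT luminescence normalized to EGFP fluorescence; hits retested at 10 μM and counter-screened on LgB/SmB alone.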

MYC:TRRAP complexes = molecular target: T1, MYC:TRRAP complexes (Homo sapiens, UniProt P01106+Q9Y4A5); experiment: in vitro co-IP (compounds added directly to the purified MYC:TRRAP complex on pre-washed beads); assay type: binding; conditions: in vitro by co-IP; normalized to protein levels; FIG. 26B; read-out: IC50 for the inhibition of MYC:TRRAP
T1 construct: immunoprecipitation experiments using endogenous full length MYC and TRRAP
Protocol: FIGS. 23A-23B show the results of co-IP assay experiments comparing the top 17 hits in immunoprecipitation experiments using endogenous full length MYC and TRRAP. In these experiments immunocomplexes were immunoprecipitated with anti-MYC beads in the presence of 25 μM of each of the 17 top compounds. Experiments were carried out in cells (compounds were added to the media of cells) (FIG. 23B) or in vitro (compounds were added directly to the purified complex on pre-washed beads) (FIG. 23A). Immunoprecipitation of TRRAP was normalized to the immunoprecipitation of MYC.
This represents an ^~10-fold increase in activity from NSC657456.

Sequence of MYC:TRRAP interaction (P01106 16-205): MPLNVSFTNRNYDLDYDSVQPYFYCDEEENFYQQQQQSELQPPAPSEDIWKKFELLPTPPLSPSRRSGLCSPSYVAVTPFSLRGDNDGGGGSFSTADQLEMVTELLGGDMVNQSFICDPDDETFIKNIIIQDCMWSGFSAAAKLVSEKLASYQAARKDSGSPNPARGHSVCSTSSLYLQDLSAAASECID
Sequence of MYC:TRRAP interaction (Q9Y4A5 2051-2301): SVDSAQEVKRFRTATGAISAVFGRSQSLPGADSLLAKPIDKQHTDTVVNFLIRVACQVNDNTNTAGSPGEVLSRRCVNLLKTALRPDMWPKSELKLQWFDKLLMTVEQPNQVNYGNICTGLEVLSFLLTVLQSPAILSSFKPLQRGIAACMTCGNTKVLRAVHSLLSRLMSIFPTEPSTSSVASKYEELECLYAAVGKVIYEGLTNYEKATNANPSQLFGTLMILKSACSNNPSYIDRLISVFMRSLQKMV
T1 sequence (P01106 16-454): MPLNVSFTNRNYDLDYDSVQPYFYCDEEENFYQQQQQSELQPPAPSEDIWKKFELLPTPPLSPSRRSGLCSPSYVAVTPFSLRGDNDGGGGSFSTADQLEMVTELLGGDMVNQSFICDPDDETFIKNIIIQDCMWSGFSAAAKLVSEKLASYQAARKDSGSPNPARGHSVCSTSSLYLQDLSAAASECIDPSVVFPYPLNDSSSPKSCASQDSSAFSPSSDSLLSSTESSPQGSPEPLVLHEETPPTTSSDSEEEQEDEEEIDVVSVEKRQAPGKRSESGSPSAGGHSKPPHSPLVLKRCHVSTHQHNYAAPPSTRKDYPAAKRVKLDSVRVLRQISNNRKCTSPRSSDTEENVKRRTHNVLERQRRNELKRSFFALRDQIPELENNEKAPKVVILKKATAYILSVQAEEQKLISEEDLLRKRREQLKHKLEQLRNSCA
T1 sequence (Q9Y4A5 1-3830 isoform Q9Y4A5-2): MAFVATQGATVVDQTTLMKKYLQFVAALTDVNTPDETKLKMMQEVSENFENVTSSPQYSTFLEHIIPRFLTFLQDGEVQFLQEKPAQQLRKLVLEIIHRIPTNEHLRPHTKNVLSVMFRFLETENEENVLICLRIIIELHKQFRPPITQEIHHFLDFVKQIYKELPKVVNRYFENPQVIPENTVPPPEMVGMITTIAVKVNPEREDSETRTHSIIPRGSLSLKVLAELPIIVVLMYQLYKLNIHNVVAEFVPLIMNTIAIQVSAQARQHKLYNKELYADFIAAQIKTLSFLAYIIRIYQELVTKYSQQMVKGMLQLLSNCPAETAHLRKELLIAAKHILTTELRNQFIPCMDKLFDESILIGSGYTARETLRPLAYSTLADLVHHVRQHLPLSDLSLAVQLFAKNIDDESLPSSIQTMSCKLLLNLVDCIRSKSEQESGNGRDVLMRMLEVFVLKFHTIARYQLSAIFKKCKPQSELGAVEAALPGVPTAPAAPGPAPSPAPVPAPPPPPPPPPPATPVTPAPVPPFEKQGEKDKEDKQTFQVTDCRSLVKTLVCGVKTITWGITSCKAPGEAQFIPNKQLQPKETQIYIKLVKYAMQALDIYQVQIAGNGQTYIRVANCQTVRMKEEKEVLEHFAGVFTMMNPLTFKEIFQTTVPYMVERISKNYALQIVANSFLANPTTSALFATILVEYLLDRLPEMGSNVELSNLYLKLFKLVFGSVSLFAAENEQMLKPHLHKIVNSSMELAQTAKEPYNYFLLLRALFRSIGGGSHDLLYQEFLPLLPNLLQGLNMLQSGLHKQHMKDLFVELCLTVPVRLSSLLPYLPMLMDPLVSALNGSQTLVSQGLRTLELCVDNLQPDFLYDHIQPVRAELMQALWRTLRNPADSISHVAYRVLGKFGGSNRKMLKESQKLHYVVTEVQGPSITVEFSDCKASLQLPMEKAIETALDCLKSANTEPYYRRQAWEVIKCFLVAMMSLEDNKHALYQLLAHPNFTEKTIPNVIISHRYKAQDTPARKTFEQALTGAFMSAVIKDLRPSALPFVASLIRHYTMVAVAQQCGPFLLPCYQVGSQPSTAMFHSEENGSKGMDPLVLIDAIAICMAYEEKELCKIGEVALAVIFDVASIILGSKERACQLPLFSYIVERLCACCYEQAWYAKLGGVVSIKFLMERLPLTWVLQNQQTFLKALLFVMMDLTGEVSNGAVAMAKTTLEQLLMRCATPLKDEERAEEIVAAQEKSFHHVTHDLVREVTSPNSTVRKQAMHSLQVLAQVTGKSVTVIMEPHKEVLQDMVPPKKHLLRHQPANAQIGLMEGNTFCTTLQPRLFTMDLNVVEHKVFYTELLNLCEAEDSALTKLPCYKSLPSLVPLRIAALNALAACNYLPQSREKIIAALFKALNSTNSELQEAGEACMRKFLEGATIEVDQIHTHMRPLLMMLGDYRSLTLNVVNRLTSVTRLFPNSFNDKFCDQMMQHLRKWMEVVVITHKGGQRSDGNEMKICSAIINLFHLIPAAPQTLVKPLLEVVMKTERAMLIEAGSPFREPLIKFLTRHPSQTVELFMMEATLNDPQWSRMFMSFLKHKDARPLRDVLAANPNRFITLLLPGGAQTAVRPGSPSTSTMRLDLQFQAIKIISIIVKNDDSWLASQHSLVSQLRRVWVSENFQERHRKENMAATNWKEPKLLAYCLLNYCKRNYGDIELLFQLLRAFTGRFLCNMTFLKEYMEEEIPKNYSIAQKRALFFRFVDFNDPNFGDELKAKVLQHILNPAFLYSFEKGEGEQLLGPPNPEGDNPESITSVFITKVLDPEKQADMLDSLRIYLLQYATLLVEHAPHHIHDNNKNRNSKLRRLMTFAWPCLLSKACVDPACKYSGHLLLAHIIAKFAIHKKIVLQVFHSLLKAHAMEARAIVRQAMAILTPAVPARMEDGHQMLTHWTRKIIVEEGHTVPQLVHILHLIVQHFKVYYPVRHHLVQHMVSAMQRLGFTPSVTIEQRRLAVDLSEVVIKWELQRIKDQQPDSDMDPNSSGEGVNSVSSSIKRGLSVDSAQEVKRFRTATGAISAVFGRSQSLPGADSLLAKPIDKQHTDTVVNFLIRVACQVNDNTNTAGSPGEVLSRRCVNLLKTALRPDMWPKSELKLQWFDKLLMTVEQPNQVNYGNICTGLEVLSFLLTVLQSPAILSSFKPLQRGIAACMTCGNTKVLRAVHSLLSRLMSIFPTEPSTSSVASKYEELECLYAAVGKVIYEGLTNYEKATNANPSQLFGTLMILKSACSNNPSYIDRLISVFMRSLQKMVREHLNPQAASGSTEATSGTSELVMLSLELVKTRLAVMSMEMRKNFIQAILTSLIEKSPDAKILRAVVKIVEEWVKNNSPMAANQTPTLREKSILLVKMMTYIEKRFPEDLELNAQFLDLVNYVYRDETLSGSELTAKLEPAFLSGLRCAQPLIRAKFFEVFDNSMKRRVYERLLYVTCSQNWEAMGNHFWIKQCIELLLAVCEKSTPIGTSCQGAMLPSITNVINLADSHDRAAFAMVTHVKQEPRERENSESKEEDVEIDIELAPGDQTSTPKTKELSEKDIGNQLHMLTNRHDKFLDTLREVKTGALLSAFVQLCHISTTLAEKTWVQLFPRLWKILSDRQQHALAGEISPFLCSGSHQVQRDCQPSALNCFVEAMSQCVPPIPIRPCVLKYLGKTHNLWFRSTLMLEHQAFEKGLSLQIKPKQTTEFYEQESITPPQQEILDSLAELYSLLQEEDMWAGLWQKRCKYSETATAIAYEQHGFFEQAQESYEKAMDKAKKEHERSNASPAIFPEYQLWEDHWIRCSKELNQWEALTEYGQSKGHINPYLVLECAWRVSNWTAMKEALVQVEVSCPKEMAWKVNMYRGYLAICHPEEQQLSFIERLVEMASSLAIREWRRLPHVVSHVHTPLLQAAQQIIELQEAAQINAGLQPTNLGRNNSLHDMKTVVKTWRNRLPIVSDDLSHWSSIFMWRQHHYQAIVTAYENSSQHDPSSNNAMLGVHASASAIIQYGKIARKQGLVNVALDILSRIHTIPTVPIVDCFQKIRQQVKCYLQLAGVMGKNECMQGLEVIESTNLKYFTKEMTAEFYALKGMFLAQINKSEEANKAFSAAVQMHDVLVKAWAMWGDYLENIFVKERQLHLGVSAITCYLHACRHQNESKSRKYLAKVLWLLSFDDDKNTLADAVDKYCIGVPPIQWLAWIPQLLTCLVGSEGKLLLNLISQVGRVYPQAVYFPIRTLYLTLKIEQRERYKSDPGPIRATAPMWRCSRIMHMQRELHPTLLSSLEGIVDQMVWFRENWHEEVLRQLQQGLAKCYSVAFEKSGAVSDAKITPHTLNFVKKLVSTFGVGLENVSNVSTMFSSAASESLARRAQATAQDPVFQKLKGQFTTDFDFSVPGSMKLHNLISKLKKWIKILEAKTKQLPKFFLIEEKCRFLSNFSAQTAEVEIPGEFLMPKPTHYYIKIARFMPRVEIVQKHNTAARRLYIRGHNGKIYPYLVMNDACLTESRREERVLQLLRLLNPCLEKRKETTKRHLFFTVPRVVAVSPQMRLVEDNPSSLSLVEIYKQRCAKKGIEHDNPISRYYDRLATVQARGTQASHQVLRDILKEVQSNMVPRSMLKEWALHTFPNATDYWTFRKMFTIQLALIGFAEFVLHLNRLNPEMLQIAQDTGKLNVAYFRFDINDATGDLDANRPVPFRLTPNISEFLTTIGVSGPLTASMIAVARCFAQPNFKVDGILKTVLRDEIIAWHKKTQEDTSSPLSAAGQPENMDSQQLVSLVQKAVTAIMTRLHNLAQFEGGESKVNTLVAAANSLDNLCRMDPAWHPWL

## Oc1[nH]c2ccccc2c1/N=N/c1nc(-c2ccccc2)cs1 [Compound 1024, 3-[(4-phenyl-1,3-thiazol-2-yl)diazenyl]-1H-indol-2-ol]
MYC:TRRAP interaction; FIG. 25, 26
  concentration that inhibits MYC:TRRAP complex formation: 3 to 5 µM
MYC:TRRAP interaction; Table 2, compounds with >80% similarity to compound 10 (NSC657456), 10 uM
  % Inhibition 10 uM: 39.63%
MYC:TRRAP interaction; compared with NSC657456
  increase in activity from NSC657456: ~ 10 fold
MYC:TRRAP interaction; in cells, in-cell luminescence complementation assay, normalized to MYC and TRRAP protein levels, FIG. 26A, read-out: IC50 for the inhibition of MYC:TRRAP
  IC50: 4.7 µM
MYC:TRRAP complexes
  IC50: 3.7 µM

From patent US20260216144A1, “TARGETING MB2 OF THE MYC ONCOGENE AND ITS INTERACTION WITH TRRAP IN CANCER” (priority 2019, published 2026)
